Publication PMC5038265 (Antimicrobial Agents and Chemotherapy, 2016)
In brackets after ≈: the same amount, converted by molar mass. Where two headings read alike, the source gives them in different places.

Assays:
M. tuberculosis LeuRS = M. tuberculosis LeuRS (Mycobacterium tuberculosis, UniProt P9WFV1); assay: biochemical; parameters: species or system M. tuberculosis H37Rv
M. tuberculosis H37Rv [1] = assay: MIC for M. tuberculosis H37Rv (resazurin/alamarBlue); assay type: cell-based, Mycobacterium tuberculosis; conditions: for MIC: Mycobacterium tuberculosis, H37RV, read-out: MIC M.tb H37Rv
in vivo = conditions: mouse, 30 mg/kg; for α-t1/2 % AUC / β-t1/2 % AUC: i.v.; for AUC(0-inf) / Cmax / MRT / Vd / clearance / half-life / AUC(0-t) / Tmax / bioavailability: in vivo
Procedure: Mouse pharmacokinetic studies were conducted by using female CD-1 mice for compounds 1, 11, and 12, while BALB/c mice were used for compound 13. Mouse body weights were 19 to 28 g, and on the morning of dosing, mice were split randomly into 3 dosing groups to receive the test article by either intravenous (i.v.) tail vein injection or oral (p.o.) gavage. After dosing, blood samples were collected via cardiac puncture at specific time points (n = 3 mice/time point) through 24 h (K2EDTA as an anticoagulant) and processed for plasma. Antibiotic concentrations in the plasma samples were analyzed by liquid chromatography-tandem mass spectrometry (LC-MS/MS). The LC-MS/MS analysis was conducted by using analyte/internal standard peak area methods. The internal standard was AN3365 ([21]), and the instrument used was an API4000 QTRAP instrument (AB Sciex). The limit of quantitation (LOQ) was 1 or 2 ng/ml. Pharmacokinetic analyses of the mean plasma concentration-time profiles were performed by using WinNonlin Pro version 5.2. A compartmental model was used for the data for i.v. dosing, and a noncompartmental model was used for the data for p.o. dosing. […] Compounds 1 and 13 were formulated in saline (0.9% [wt/vol] NaCl) at 7.5 mg/ml, and the pH was adjusted to >5 by the addition of NaOH. Compound 11 was formulated to 6.5 mg/ml in water-dimethylacetamide-ethanol (EtOH) (76:19:5), and the pH was adjusted to >5 by the addition of NaOH. Compound 12 was formulated to 7.5 mg/ml in PEG 300-propylene glycol (PG)-water (55:25:20), and the pH was adjusted to >5 by the addition of NaOH.

in vitro = in vitro ADME; conditions: mouse plasma, 1 and 10 µg/ml, ultrafiltration; read-out: Mouse PPB (converted)
Procedure: Compounds were added to 1.5-ml aliquots of mouse plasma at concentrations of 1 and 10 µg/ml and then incubated in a shaking water bath at 37°C for 15 min. Both samples were treated similarly, and a 0.5-ml aliquot was removed from each tube and added to the filter reservoir of Microcon centrifugal filter devices (Ultracel YM-30 with a molecular mass cutoff of 30 kDa). The devices were centrifuged at 1,000 × g for 10 min, and 100 μl of the filtrate was transferred to a 96-well plate and diluted 5-fold. Ten-microliter volumes of the samples were injected and analyzed with the LC-MS/MS system. All samples were analyzed in duplicate. Quantitation was based on the peak area ratio of the analyte over the internal standard, and all integrations were performed with peak areas by using Analyst version 1.4.1 (Applied Biosystems, Foster City, CA, USA). Plasma protein binding was calculated based on the following equation: Plasma Protein Binding (%)=(PeakAreaPlasma UltrafilrateSpiked−PeakAreaPlasmaFiltrate)/PeakAreaPlasma UltrafiltrateSpiked×100

COX1 in HepG2 cells = assay: Mitochondrial protein synthesis assay, COX1 level; assay type: cell-based; conditions: Homo sapiens, 168 h; HepG2, 7 days; read-out: Mean EC50 ± SD COX1
Procedure: (§1) The human liver carcinoma-derived HepG2 cell line was obtained from the ATCC (ATCC HB-8065). HepG2 cells were grown in Dulbecco's modified Eagle's medium containing 10% fetal calf serum, 1 mM sodium pyruvate, 0.1 mM essential amino acids, and 50 U/ml penicillin-streptomycin at 37°C with 5% CO2. HepG2 cells were seeded into 96-well plates at 3,000 cells/200 μl/well in cell culture medium. Cells were then grown in the presence of the compounds at 37°C in 10% CO2 for 7 days in at least duplicate concentrations, with the medium and compounds being replaced on the fourth day. After 7 days, the levels of SDHA (subunit A of the succinate dehydrogenase complex) and COX1 (cytochrome c oxidase) were determined by using the MitoSciences In-Cell enzyme-linked immunosorbent assay (ELISA) kit. Janus green staining was used to determined cell viability after 7 days (In-Cell ELISA kit, catalog number MS643).

SDHA in HepG2 cells = assay: Mitochondrial protein synthesis assay, SDHA level; assay type: cell-based; conditions: Homo sapiens, 168 h; HepG2, 7 days; read-out: Mean EC50 ± SD SDHA
Procedure: as §1

HepG2 cells = assay: HepG2 cell viability (Janus green staining); assay type: cell-based; conditions: Homo sapiens, 168 h, HepG2, 7 days, read-out: Mean EC50 ± SD Cell viability
Procedure: as §1

[2] = molecular target: M. tuberculosis LeuRS editing domain (Mycobacterium tuberculosis, UniProt P9WFV1); assay: biochemical; assay type: binding
M. tuberculosis H37Rv [3] = assay type: in vivo, C57BL/6J mice
M. tuberculosis H37Rv [4] = system: M. tuberculosis H37Rv; parameters: species or system C57BL/6J mice; conditions: mouse, in vivo
M. tuberculosis H37Rv [5] = assay: Time-kill assay; assay type: cell-based
M. tuberculosis H37Rv [6] = assay: microbe, parasite or virus in culture; assay type: cell-based; conditions: Mycobacterium tuberculosis, read-out: MIC on Middlebrook 7H10 agar

Sequence of M. tuberculosis LeuRS editing domain (P9WFV1 309-513): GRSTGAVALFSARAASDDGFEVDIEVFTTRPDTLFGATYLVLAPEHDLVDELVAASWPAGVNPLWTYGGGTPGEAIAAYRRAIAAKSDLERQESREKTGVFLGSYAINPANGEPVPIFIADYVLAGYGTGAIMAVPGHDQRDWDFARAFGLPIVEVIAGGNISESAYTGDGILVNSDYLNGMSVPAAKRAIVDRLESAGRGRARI
Sequence of M. tuberculosis LeuRS (P9WFV1 whole entry): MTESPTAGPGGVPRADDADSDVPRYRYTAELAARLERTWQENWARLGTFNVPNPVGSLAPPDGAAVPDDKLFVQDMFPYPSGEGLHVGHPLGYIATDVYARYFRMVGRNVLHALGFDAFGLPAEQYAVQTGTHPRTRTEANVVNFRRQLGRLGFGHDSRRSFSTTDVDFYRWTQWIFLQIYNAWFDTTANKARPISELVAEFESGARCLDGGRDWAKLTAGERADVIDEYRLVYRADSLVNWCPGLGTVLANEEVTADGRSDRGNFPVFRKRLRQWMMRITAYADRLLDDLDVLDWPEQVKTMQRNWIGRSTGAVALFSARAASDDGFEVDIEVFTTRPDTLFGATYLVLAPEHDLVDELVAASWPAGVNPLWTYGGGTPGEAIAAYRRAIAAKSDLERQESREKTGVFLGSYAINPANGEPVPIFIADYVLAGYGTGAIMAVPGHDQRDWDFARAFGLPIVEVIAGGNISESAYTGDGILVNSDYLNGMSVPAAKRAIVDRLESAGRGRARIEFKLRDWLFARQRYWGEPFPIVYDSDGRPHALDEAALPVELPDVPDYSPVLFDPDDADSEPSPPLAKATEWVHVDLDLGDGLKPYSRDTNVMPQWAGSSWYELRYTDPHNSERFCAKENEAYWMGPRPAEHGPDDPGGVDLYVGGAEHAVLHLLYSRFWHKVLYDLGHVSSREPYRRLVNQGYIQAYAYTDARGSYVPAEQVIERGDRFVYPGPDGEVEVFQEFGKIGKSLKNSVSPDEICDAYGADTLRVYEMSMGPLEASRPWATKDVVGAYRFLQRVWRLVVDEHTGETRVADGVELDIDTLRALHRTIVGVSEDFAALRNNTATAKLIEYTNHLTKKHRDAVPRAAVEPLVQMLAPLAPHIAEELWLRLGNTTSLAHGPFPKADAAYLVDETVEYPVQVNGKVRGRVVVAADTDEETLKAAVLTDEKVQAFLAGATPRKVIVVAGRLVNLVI

Row | SMILES | MIC (M. tuberculosis H37Rv [1]) [µg/mL] | α-t1/2 % AUC (in vivo) [% AUC] | β-t1/2 % AUC (in vivo) [% AUC] | AUC(0-inf) (in vivo; iv) [ng·h/mL] | Cmax (in vivo; iv) [ng/mL] | MRT (in vivo; iv) [h] | Vd (in vivo; iv) [L/kg] | clearance (in vivo; iv) [mL/min/kg] | half-life (in vivo; iv, α-t1/2, mouse) [min] | half-life (in vivo; iv, β-t1/2, mouse) [min] | AUC(0-t) (in vivo; po) [ng·h/mL] | Cmax (in vivo; po) [ng/mL] | Tmax (in vivo; po) [min] | bioavailability (in vivo; po) [%] | half-life (in vivo; po, Terminal t1/2, mouse) [min] | fraction unbound (in vitro) | EC50 (COX1 in HepG2 cells) [µM] | EC50 (SDHA in HepG2 cells) [µM] | EC50 (HepG2 cells) [µM] | IC50 (M. tuberculosis LeuRS) [nM] | other results
1 | CCOc1ccc(F)c2c1B(O)O[C@@H]2CN [Compound 12] | 0.05 (≈ 0.222 µM) | 7 | 93 | 26800 | 13700 | 3.4 | 3.81 | 18.6 | 6.6 | 152 | 23800 | 5000 | 60 | 89 | 162 | 0.84 | > 150 | 39.5 ± 9.2 | 23 ± 1.4 | – | IC50 (M. tuberculosis LeuRS; read-out: IC50 M.tb LeuRS): 80 nM
2 | CCOc1ccc(Cl)c2c1B(O)O[C@@H]2CN [Compound 13] | 0.02 (≈ 0.0828 µM) | 2 | 98 | 51600 | 13600 | 5.4 | 3.14 | 9.7 | 6 | 230 | 47500 | 6400 | 15 | 92 | 186 | 0.77 | > 150 | 20.5 ± 2.1 | 80 ± 5.7 | 60 | Kd [2]: 75 nM; No. of sites [2]: 1.19; ΔGap [2]: -9.7 kcal/mol; ΔHap [2]: -4.2 kcal/mol; −TΔSap [2]: -5.5 kcal/mol
3 | CC(=O)NC[C@H]1CN(c2ccc(N3CCOCC3)c(F)c2)C(=O)O1 [Linezolid, linezolid] | – | – | – | – | – | – | – | – | – | – | – | – | – | – | – | – | 27.3 ± 10.8 | > 150 | > 150 | – | MIC values used in kill kinetics experiment (M. tuberculosis H37Rv [1]): 0.6 µg/mL (≈ 1.78 µM); reduction in CFU (M. tuberculosis H37Rv [3]; mouse, in vivo): 2.6 log10
4 | CCOc1ccc(Br)c2c1B(O)O[C@@H]2CN [Compound 14] | 0.02 (≈ 0.0699 µM) | 5 | 95 | 43700 | 17100 | 4.7 | 3.22 | 11.4 | 3 | 204 | 57600 | 6300 | 30 | 100 | 216 | – | > 150 | 21.5 ± 6.4 | 106 ± 37.5 | 80 | MIC values used in kill kinetics experiment (M. tuberculosis H37Rv [1]; M. tuberculosis H37Rv, Fig. 6): 0.013 µg/mL (≈ 0.0455 µM); reduction in CFU (M. tuberculosis H37Rv [3]; 30 mg/kg QD, 8 weeks, lungs): 2.4 log10; efficacy in murine model of acute TB infection (M. tuberculosis H37Rv [4]): more active at lower doses than linezolid; in vitro kill kinetics profile (M. tuberculosis H37Rv [5]): very similar to that of the bacteriostatic protein synthesis inhibitor linezolid; MIC (M. tuberculosis H37Rv [6]): 0.2 µg/mL (≈ 0.699 µM)
